Source: patent US20060251638A1, “Cytoprotection through the use of hif hydroxylase inhibitors” (priority 2003, published 2006)

How the values were obtained:
[1] = system: Human umbilical vein endothelial cells (HUVEC); assay: TNF-α induced apoptosis in HUVEC (Annexin V immunostaining, morphology); format: cell-based
Description: Human umbilical vein endothelial cells (HUVEC) were plated in DMEM containing 0.5% fetal bovine serum that was supplemented with 1 ng/ml of vascular endothelial growth factor. After overnight culture, the cells were washed with PBS and incubated for an additional 24 hours in DMEM containing 0.5% fetal bovine serum and either vehicle control (DMSO) or 25 μM of compound G. The cell cultures were subsequently washed and re-cultured with DMEM containing 0.5% fetal bovine serum containing 20 ng/ml TNF-α for an additional 4 or 8 hours. The cells were then harvested and immunostained with either FITC-conjugated isotype control or FITC-conjugated Annexin V for identification and determination of cells undergoing apoptosis. (Koopman et al. (1994) Blood 84:1415-1420.) Annexin V preferentially binds negatively charged phospholipids, like phosphatidylserine, which are associated with plasma membrane changes in apoptotic cells. Annexin V binding allows for the identification and quantitation of cells at early stages of apoptosis, when apoptosis occurs in the absence of DNA fragmentation, and the discrimination between cell death associated with apoptosis or with necrosis.
In replicate HUVEC cultures treated as described above, light micrographs were taken of cells treated with vehicle control (DMSO) and compound G following stimulation with 20 ng/ml TNF-α for 4 and 8 hours (FIG. 6). […]

caspase-3 and caspase-7 = assay: Caspase-3 and caspase-7 fluorometric assay in SH-SY5Y cells challenged with staurosporin; format: cell-based, human
Description: SH-SY5Y cells (human neuroblastoma cells) were plated in 96-well culture plates at 60,000 cells per well. Following overnight incubation, cells were washed one time with DMEM containing 1% fetal bovine serum and cultured in identical media with either vehicle control (DMSO) or 20 μM compound G in a total volume of 200 μl per well. After 24 hours, cells were washed with serum-free media and then incubated with DMEM containing 10% fetal bovine serum with either vehicle control (DMSO) or 20 μM compound G in a total volume of 200 μl per well. Replicate cultures received DMEM with 1% fetal bovine serum and were cultured with either vehicle control (DMSO) or 20 μM compound G, in the absence or presence of 500 nM staurosporin, a kinase inhibitor that induces cellular apoptosis by a caspase-dependent mechanism. (Jacobsen et al. (1996) J Cell Biol. 133:1041-51.). After an additional 24 hour incubation, caspase activity was assayed using a caspase-3 and caspase-7 fluorometric assay according to the manufacturer's instructions (Apo-ONE Homogenous Caspase 3/7 Assay, Promega, Wis.).

H9c2 rat cardiomyocytes = assay: Intracellular ATP levels and morphology of H9c2 cardiomyocytes under homocysteic acid (HCA) oxidative stress; format: cell-based
Description: H9c2 rat cardiomyocytes were incubated with 10 mM homocysteic acid (HCA) in the absence or presence of various concentrations of compound G as indicated for 24 hours. Cell viability was determined by measuring intracellular ATP levels. Quantitation of intracellular ATP levels was performed using the ViaLight Plus™ kit (Cambrex Cat. No. LT17-221) according to the manufacturers instructions.
Phase contrast microscopy of cells treated with HCA correlated with the results shown for intracellular ATP levels in vehicle (DMSO) and compound G treated cells.

HO-1 protein = HO-1 protein levels in H9c2 cardiomyocytes by ELISA; format: cell-based, rat; settings: H9c2, 100 μM compound; control 2.86
Description: In another series of experiments, H9c2 rat cardiomyocytes were treated with either vehicle control or with various concentrations (1 μM, 3 μM, 10 μM, 30 μM, and 100 μM) of compound C or compound G. Cell lysates were harvested and HO-1 protein levels determined by ELISA according to the manufacturer's instructions (cat # EKS-810; Stressgen, Victoria, BC, Canada). Data shown below in Table 4 represents values obtain with 100 μM compound.

[2] = system: gene encoding adrenomedullin; assay: Adrenomedullin gene expression in peripheral blood mononuclear cells; format: cell-based; settings: human PBMCs, 5 μM, 20 hours
Description: Adrenomedullin gene expression following compound treatment was also examined in peripheral blood mononuclear cells (PBMCs). Whole human blood was collected and processed immediately. The blood was diluted with an equal volume of phosphate buffered saline. FICOLL-PAQUE PLUS (Amersham Biosciences) was layered under the blood and the tubes were centrifuged at 350×g for 12 minutes at room temperature. PBMCs formed a visible layer in the middle layer of the tube. PBMCs were carefully removed from the tube, diluted with 3 volumes of phosphate buffered saline, and pelleted by centrifugation for 5 minutes at 300×g at room temperature. PBMCs were cultured in DMEM containing 2.5% fetal bovine serum and treated with either 0.25% DMSO or compound G (5 μM) in 0.25% DMSO for 20 hours. The cells were then pelleted and stored at −20° C. in RLT lysis buffer (Qiagen Inc., Valencia, Calif.) containing 1% beta-mercaptoethanol. Total RNA was isolated using the RNeasy kit (Valencia, Calif.).

O=C(O)CNC(=O)c1ncc2cc(Oc3ccccc3)ccc2c1O [Compound G, [(4-Hydroxy-7-phenoxy-isoquinoline-3-carbonyl)-amino]-acetic acid]
annexin V immunostaining (mean fluorescence intensity) versus TNF-α alone ([1]; 25 μM for 24 hours prior to 20 ng/ml TNF-α for 4 or 8 hours): reduced annexin V immunostaining
HUVEC morphology after TNF-α (light micrographs) ([1]; 25 μM prior to 20 ng/ml TNF-α for 4 and 8 hours): viable and normal morphology
caspase activity after staurosporine challenge (caspase-3 and caspase-7; 20 μM pretreatment, 500 nM staurosporin, 1% fetal bovine serum, FIG. 1): significantly inhibited
caspase activity in cells not undergoing apoptosis, versus DMSO (caspase-3 and caspase-7; 20 μM, 10% fetal bovine serum, no staurosporin): no differences in caspase activity
intracellular ATP levels in the presence of HCA versus vehicle (H9c2 rat cardiomyocytes; H9c2, 10 mM HCA, various concentrations, 24 hours, FIG. 2): dose-dependent increases in intracellular ATP levels
cell morphology by phase contrast microscopy under HCA (H9c2 rat cardiomyocytes; H9c2, HCA, 30 μM compound, FIG. 3): still confluent, appeared less rounded, and maintained a morphology consistent with viable cardiomyoctes
intracellular ATP levels in cells not incubated with HCA (H9c2 rat cardiomyocytes; H9c2, no HCA, data not shown): unchanged
HO-1 (ng/mg total cell protein) (HO-1 protein): 28.54 ng/mg total cell protein
increase in expression of the gene encoding adrenomedullin compared to non-treated control cells [2]: greater than 3.518 fold
